Assays:
Rac1 = biological target: T1, Rac1 (Homo sapiens, UniProt P63000); assay: Rac activation assay (PAK-PBD pulldown); format: cell-based; conditions: 250 nM, 24 hours, MDA-MB-231
T1 construct: endogenous in cells; host or cells: MDA-MB-231
Method: MDA-MB-231 breast cancer cells were treated for 24 hours with 0 or 250 nM 4c. Cells were lysed and equal amounts of proteins were subjected to pull-down assays using the p21-binding domain of PAK to isolate GTP bound Rac. Top panel, pulldown showing GTP bound Rac1; middle panel, total Rac1 in lysates; bottom panel, actin as a loading control.
MDA-MB-231 triple negative breast cancer cells were seeded at equal density and treated with vehicle or Compound 4c for 24 hrs at various concentrations. Rac-GTP was detected using Rac Activity Assay, as per manufacturer's instructions (Cell Signaling). Briefly, total cell lysates were quantified and added equally to Pak-PBD beads. After 1 hr of incubation, beads were washed and Rac1-GTP (in pellets) or total Rac1 (in cell lysates) was detected by western blot using Rac1 antibody. (n=3 biological replicates).

MDA-MB-231 = assay: Initial screening, inhibition of migration (wound gap); format: cell-based; conditions: Homo sapiens, at 10 μM, read-out: Inh. of migration
Method: In addition, the inhibition of migration of MDA-MB-231 was determined via the following procedure:
Prior to assays, cells were grown until 80-90% confluence was observed. We used a 75 cm^2 flask for 2.6×10^5 cells/mL in 10 mL and for a 25 cm^2 flask 1.44×10^5 cells/mL in 5 mL. The cells were washed with PBS to remove all traces of FBS. We added 2 mL for a 25 cm^2 flasks or 4 mL for a 75 cm^2 flasks trypsin, and incubated 5-10 min at 37° C. At the end of the incubation time, cells were re-suspended and counted with hemocytometer using 1:2 dilutions with Trypan blue. Subsequently, cell viability was calculated. In a 12 well tissue culture plate, we used the plastic pattern to draw a fine space with a fine marker on the bottom of the plate. Cells were seeded at 1.5-2.2×10^5 cells/mL in 1 mL and incubated for 24 h. Cells were then rinsed with PBS and incubated in starving media (0.5% FBS) overnight. All controls and drugs were tested in triplicate. The negative control for each drug was prepared according to the drug's DMSO concentration. […] The wound was made using a sterile pipette tip of 200 μL. Cells were then rinsed very gently with media without FBS and media with negative controls was added. After a 24 h incubation, the gap distance was evaluated using the software Lumera Infinity Analyze 6.4.0. Pictures were taken at 0, 8, 12 and 24 h using a 10× objective in an Inverted Laboratory Microscope Leica DM IL LED, and an Infinity1-3 3.1 Megapixel USB 2.0 camera CMOS. The percentage of migration was calculated using the following formula: […]

MDA-MB-435 = assay: Cell viability assay (MTT); format: cell-based, human; conditions: Homo sapiens, MDA-MB-435
Method: Cells plated at equal density were treated at 500 nM of compounds. After 72 hours, cell viability was measured by a MTT assay. n=3; * p<0.05, ** p<0.01, *** p<0.001.
Cells plated at equal density were treated at 250 nM of 4c at 250 nM.
Data from 3 biologic replicates each with 2 technical replicates. Four parameter dose-response curves generated using GraphPad Prism are shown.
[…]. GI50 was calculated using Graph pad Prism.
(§1) […] Using CellTiter 96 Non-Radioactive Cell Proliferation Assay (Promega, Corp.) according to manufactures' instructions, formazan was used as an indicator of viable cells at an absorbance 570 nm in a Tecan Microplate Reader M100. Data was calculated as fold change from vehicle and fitted using the 4′parameter logic nonlinear regression model in GraphPad Prism software. (n=3 biologic replicates: with 3 technical replicates each).
A range of compounds were tested by MTT assays for cell viability in MDA-MB-231 triple negative breast cancer (TNBC) cells and MDA-MB-435 HER2++ cancer cells. […].

Vav2 binding to Rac1 = biological target: T2, Vav2 binding to Rac1 (Homo sapiens, UniProt P63000, G15A); assay: Rac1 GEF assay, Rac1(G15A) pulldown; conditions: 250 nM, MDA-MB-231 lysates
T2 construct: purchased Cell Biolabs, San Diego; CA; host or cells: Vav2 from MDA-MB-231 cell lysate
Method: GST-Rac1 (G15A) beads were pre-incubated with vehicle (0.1% DMSO), or 8 μM EHop-016, or 250 nM Compound 4c for 1 hour followed by incubation with MDA-MB-231 cell lysates (equal total protein). Representative Western blot for Rac1(G15A) or pulldowns immunostained for Vav2 is shown (n=3).
MDA-MB-231 cells in culture medium were lysed in 1% Triton X-100, 20 mM HEPES, pH 7.4, 150 mM NaCl, 5 mm MgCl2, and protease inhibitors and processed. Equal amounts of protein from cleared lysates were incubated for 1 h at 4° C. with glutathione-agarose beads conjugated to GST-Rac1(G15A) nucleotide-free mutant (Cell Biolabs, San Diego. CA) that were preincubated (for 1 h) with vehicle or 8 μm EHop-016 or 0.25 μM Compound 4c. The beads were washed, and the lysates and pull-downs were immunoblotted for Tiam-1, Trio, Ect2, p-REX, or Vav2.

Panc-1 = assay: Cell viability assay (MTT); format: cell-based; conditions: Homo sapiens, 120 hours, 0-1000 nM
Method: as §1

**Q.** What does the source list for CCn1c2ccccc2c2cc(-n3nnc(C(O)c4cccc(OC)c4)c3-c3ccccc3)ccc21 (stereo not shown) [Compound 4c, (1-(9-ethyl-9H-carbazol-3-yl)-5-phenyl-1H-1,2,3-triazol-4-yl) (3-methoxyphenyl) methanol]?
**A.** reduction of Rac1 activation by GTP loading (Rac1): 85%; inhibition at 10 µM (MDA-MB-231): 50.8 ± 11.4%; inhibition at […] (MDA-MB-435; 250 nM (FIG. 1C), read-out: inhibition of MDA-MB-435 cells): ~60%; cytotoxicity at 0.5 µM (MDA-MB-435; 500 nM, 72 hours, read-out: decrease in cell viability, MDA-MB-435): ~80%; GI50 (MDA-MB-435; 120 hours, 0-1000 nM, read-out: GI50, MDA-MB-435): 261 nM; inhibition at […] (Vav2 binding to Rac1): ~80%; GI50 (Panc-1): 235 nM

— US20250214973A1, “1,4,5-TRISUBSTITUTED-1,2,3-TRIAZOLES AND USES THEREOF” (UNIVERSITY OF PUERTO RICO, priority 2022, published 2025)
